Experimental data: ChEMBL document CHEMBL5036373, “Enantiopure Benzofuran-2-carboxamides of 1-Aryltetrahydro-β-carbolines Are Potent Antimalarials In Vitro” (ACS Med Chem Lett, 2022)
The source made the active and inactive calls. No cut-off for these calls is given here.

How the values were obtained:
[1] = system: Plasmodium falciparum; assay: Antiplasmodial activity against chloroquine, pyrimethamine and mefloquine-resistant asexual blood stage of Plasmodium falciparum Dd2 assessed as reduction in parasite growth after 72 hrs by SYBR green I staining based fluorescence assay; type: functional, organism-based; details: Dd2, 72 h
[2] = system: Plasmodium falciparum; assay: Antiplasmodial activity against chloroquine, pyrimethamine and mefloquine-sensitive asexual blood stage of Plasmodium falciparum 3D7 assessed as reduction in parasite growth after 72 hrs by SYBR green I staining based fluorescence assay; type: functional, organism-based; details: 3D7, 72 h
[3] = Half life in rat plasma at 40 mg/kg, po; type: ADME, organism-based
[4] = Cytotoxicity against human HEK293 cells assessed as reduction in cell viability incubated for 24 hrs by resazurin dye based fluorescence assay
[5] = Cytotoxicity against human primary hepatocytes assessed as reduction in cell viability incubated for 24 hrs by DAPI staining based fluorescence assay; set-up: species or system Hepatocyte
[6] = system: Escherichia coli; assay: Antibacterial activity against Escherichia coli BL21 (DE3) cells assessed as inhibition of bacterial growth measured after 18 hrs measured by cell density meter; type: functional
[7] = Plasma protein binding in CD-1 mouse at 1 to 10 uM by LC-MS analysis; type: ADME, cell-free; details: dose 1-10 µM, read-out: PPB
[8] = Stability in CD-1 mouse plasma measured after 60 mins LC-MS analysis; type: ADME, cell-free; details: read-out: Stability
[9] = Solubility of the compound in pH 7.4 PBS buffer by LC-MS analysis; type: physicochemical
[10] = Stability in CD-1 mouse liver microsomes assessed as half life measured after 60 mins in presence of NADPH LC-MS analysis; type: ADME, Microsome
[11] = Stability in mouse hepatocyte assessed as half life measured after 120 mins by LC-MS analysis; type: ADME, tissue-based; details: hepatocytes
[12] = Partition coefficient, logD between 1-octanol and pH 7.4 PBS by LC-MS analysis; type: physicochemical; details: 1-octanol/PBS
[13] = Oral bioavailability in rat; type: ADME, organism-based; details: in vivo
[14] = AUC(0 to 24) in rat at 40 mg/kg, po; type: ADME, organism-based; set-up: time < 24 hr, route oral, dose 40 mg/kg; details: in vivo
[15] = system: Plasmodium berghei; assay: In vivo antimalarial activity against blood stage transgenic Plasmodium berghei ANKA strain (PbGFP-Luccon) infected in swiss Webster mouse assessed as supression of parasitemia at 40 mg/kg, po administered once daily starting from day 2 to 6 post infection and measured at day 7 by luciferase substrate based imaging analysis; type: functional, organism-based; details: time 5.0 day

SMILES	EC50 [1] [nM]	also measured
O=C(c1cc2ccccc2o1)N1CCc2c([nH]c3ccccc23)[C@H]1c1ccc(Cl)cc1	1250	–
COc1ccc(C(=O)N2CCc3c([nH]c4ccccc34)C2c2ccc(Cl)cc2)cc1 (racemic)	1250	–
O=C(CCC1CCCC1)N1CCc2c([nH]c3ccccc23)C1c1ccc(Cl)cc1 (racemic)	726	–
CCOc1ccc([C@@H]2c3[nH]c4ccccc4c3CCN2C(=O)c2cc3cc(Cl)ccc3[nH]2)cc1	1250	–
O=C(c1cc2cc(Br)ccc2o1)N1CCc2c([nH]c3ccccc23)[C@H]1c1ccc(Br)cc1	239	–
Cc1ccc2oc(C(=O)N3CCc4c([nH]c5ccccc45)[C@H]3c3ccc(Cl)cc3)cc2c1	198	–
O=C(c1cc2cc(Cl)ccc2[nH]1)N1CCc2c([nH]c3ccccc23)[C@H]1c1ccc(Cl)cc1	1250	–
O=C(c1cc2cc(Br)ccc2o1)N1CCc2c([nH]c3ccccc23)[C@@H]1c1ccc(Cl)cc1	28	EC50 [2]: 15 nM
O=C(c1cc2cc(Cl)ccc2o1)N1CCc2c([nH]c3ccccc23)[C@H]1c1ccc(Cl)cc1	173	EC50 [2]: 304 nM
O=C(c1cc2cc(Br)ccc2o1)N1CCc2c([nH]c3ccccc23)[C@H]1c1ccc(F)cc1	211	–
CCOc1ccc([C@@H]2c3[nH]c4ccccc4c3CCN2C(=O)c2nc3cc(Br)ccc3[nH]2)cc1	625	–
C[C@@H]1CC[C@H]2[C@@H](C)C(=O)O[C@@H]3O[C@@]4(C)CC[C@@H]1[C@]32OO4 [ARTEMISININ]	11	EC50 [2]: 10 nM
CCOc1ccc([C@H]2c3[nH]c4ccccc4c3CCN2C(=O)c2cc3cc(Br)ccc3o2)cc1	625	–
N#Cc1ccc([C@@H]2c3[nH]c4ccccc4c3CCN2C(=O)c2cc3cc(Br)ccc3o2)cc1	216	–
O=C(c1cc2cc(Cl)ccc2o1)N1CCc2c([nH]c3ccccc23)[C@H]1c1ccc(Br)cc1	194	–
O=C(c1cc2cc(Br)ccc2o1)N1CCc2c([nH]c3ccccc23)[C@H]1c1ccccc1	452	–

SMILES	EC50 [1] [nM]	also measured
CCOc1ccc([C@@H]2c3[nH]c4ccccc4c3CCN2C(=O)c2nc3cc(Br)ccc3o2)cc1	770	EC50 [2]: 937 nM
CCOc1ccc([C@@H]2c3[nH]c4ccccc4c3CCN2C(=O)c2cc3cc(Cl)ccc3o2)cc1	129	EC50 [2]: 175 nM
Clc1ccc(C2NCCc3c2[nH]c2ccccc32)cc1 (racemic)	5000	–
O=C(c1cc2ccc(Br)cc2o1)N1CCc2c([nH]c3ccccc23)[C@H]1c1ccc(Cl)cc1	796	–
O=C(c1cc2cc(Br)ccc2o1)N1CCc2c([nH]c3ccccc23)[C@H]1c1ccc(Cl)cc1	155	half-life [3]: 8 h; EC50 [2]: 180 nM; CC50 at 24 h [4]: > 50000 nM; CC50 at 24 h [5]: > 10000 nM; MIC [6]: > 25 µM; fraction unbound at up to 10 µM [7]: < 0.001; remaining at 1 h [8]: 100%; solubility [9]: < 0.044 µM; half-life [10]: 1.32 h; half-life [11]: 2.92 h; logD [12]: > 5; bioavailability [13]: 11%; AUC at 24 h [14]: 28200 ng·h/mL; Activity [15]: inactive
O=C(c1cc2cc(Br)ccc2o1)N1CCc2c([nH]c3ccccc23)C1c1ccc(Cl)cc1 (racemic)	185	–
O=C(c1ccccc1)N1CCc2c([nH]c3ccccc23)C1c1ccc(Cl)cc1 (racemic)	2500	–
CCOc1ccc([C@@H]2c3[nH]c4ccccc4c3CCN2C(=O)c2cc3cc(Br)ccc3o2)cc1	138	EC50 [2]: 120 nM
O=C(c1ccc(Cl)c(Cl)c1)N1CCc2c([nH]c3ccccc23)C1c1ccc(Cl)cc1 (racemic)	1240	–
CCOc1ccc([C@@H]2c3[nH]c4ccccc4c3CCN2C(=O)c2cc3cc(F)ccc3o2)cc1	123	–
O=C(c1cc2cc(Cl)ccc2o1)N1CCc2c([nH]c3ccccc23)[C@H]1c1ccc(F)cc1	143	–
CCOc1ccc([C@@H]2c3[nH]c4ccccc4c3CCN2C(=O)c2cc3ccccc3o2)cc1	1250	–
CC(=O)N1CCc2c([nH]c3ccccc23)C1c1ccc(Cl)cc1 (racemic)	2500	–
O=C(c1ccc(Br)cc1)N1CCc2c([nH]c3ccccc23)C1c1ccc(Cl)cc1 (racemic)	682	–
CCN(CC)CCCC(C)Nc1ccnc2cc(Cl)ccc12 (stereo not drawn) [CHLOROQUINE]	319	EC50 [2]: 7 nM; Activity [15]: Active
